Patent US12152029B2, “Crystalline forms of a MAGL inhibitor” (H. Lundbeck A/S, priority 2021, dated 2024)

Experiments:
Assay type in all cases: physicochemical
[1] = Solid form conversion of solvates on heating, drying or storage (XRPD)
[2] = Dynamic vapour sorption (DVS); settings: for water uptake up to 90% RH / hygroscopicity by DVS analysis: 25° C.; for water uptake up to 90% RH: 0% RH to 90% RH; for hygroscopicity by DVS analysis: up to 90% RH; for Hygroscopicity in DVS, uptake at 90% RH: Table 3, 90% RH; for solid form by XRPD analysis after DVS analysis: after DVS cycle
Experimental: Dynamic vapour sorption (DVS) was measured using a SMS DVS Intrinsic moisture sorption analyser changing the relative humidity from 0% RH to 90% RH. The sample temperature was maintained at 25° C. The humidity was controlled by mixing streams of dry and wet nitrogen, with a total flow rate of 200 ml/min. The relative humidity was measured by a calibrated Rotronic probe (dynamic range of 1.0-100% RH), located near the sample. The weight change of the sample as a function of % RH was constantly monitored by a balance.
Typically, 5-30 mg of sample was placed in a tared mesh stainless steel basket under ambient conditions. The sample was loaded and unloaded at 40% RH and 25° C. (typical room conditions).

[3] = Stability of HCl salt forms at accelerated (elevated) conditions; settings: for Stability at elevated conditions: Table 3
Experimental: To further elucidate differences between the hydrochloride salt forms, their stability at accelerated conditions and their hygroscopicity was measured. The data are summarized in Table 3 together with the observations reported in Example 20.

[4] = Competitive slurry experiments between different forms of Compound (I) HCl salt
Experimental: Competitive slurry experiments between different form of Compound (I) HCl salt were performed to elucidate the relative thermodynamic stability between unsolvated crystalline forms of interest.
The resulting slurries were stirred for 3 hours to approach equilibrium conditions at either 5 or 50° C., 500 rpm. The following solvents and solvent combinations were utilized: EtOAc, MIBK, THF, MeCN, MeOH, and Acetone.
This dry powder mixture was mixed in a gyroscopic Turbula mixer for 2 hours. Then 50 mg aliquots of the mixture were weighed into HPLC vials and 0.5 mL of the above saturated solutions were added. The resulting suspensions were then stirred for 7 days.
The above competitive slurries were sampled after 1 and 7 days. The samples taken after 1 day were air dried and analyzed with XRPD. The samples taken after 7 days were first analyzed in wet state (covered with a Kapton film) in the XRPD and then subjected to air drying and analyzed again.

[5] = Competitive slurry experiments between Compound (I) form 1 and form 7; settings: for relative thermodynamic stability: slurry in methanol or ethanol at 5° C., room temperature and 50° C. for one week
Experimental: The relative thermodynamic stability of Compound (I) form 1 and Compound (I) form 7 was elucidated using competitive slurry experiments as detailed in the following.
Step 1: Compound (I) form 1 (150 mg) and Compound (I) form 7 (150 mg) were mixed in a 20 mL vial. 40 mg (each) of this physical mixture was placed into six 2 mL vials.
Step 2: Using the remaining 60 mg of the physical mixture, saturated solutions with methanol and ethanol, respectively, were produced. The saturated solutions were filtered off.
Step 3: 10 volumes ([…]) of each saturated solution were added to each of the six 2 mL vials mentioned in step 1.
Step 4: One vial for each solvent was kept at 5° C., room temperature and 50° C. for one week.
XRPD analysis carried out on the solids yielded a pattern substantially similar to FIG. 1 for all six vials.

[6] = Variable temperature XRPD of Compound (I) form 7; settings: VT-XRPD, heating 10° C./min
Experimental: Procedure 4 carried out under non-ambient conditions: For variable temperature (VT-XRPD) experiments the samples were prepared and analysed in an Anton Paar chromed sample holder. A heating/cooling rate of 10° C./min was used. The measurement parameters are as per the standard screening data collection method (detailed in Procedure 3 above). Measurements were taken at the following temperatures: 25, 100, 145, 150, 155, 160, 165, 170, 175, and 25° C.
Compound (I) form 7 obtained using the procedure detailed in Example 2 was subjected to variable temperature X-ray powder diffraction (VT-XRPD), as described in Example 10 (“[…]”).

[7] = DVS, listed as Compound (I) HCl form 2
[8] = DVS, listed as Compound (I) HCl form 4
[9] = DVS, listed as Compound (I) HCl form 5
[10] = DVS, listed as Compound (I) HCl form 6

C1COCCO1.O=C(O)c1ccn(C(=O)N2CCC3(CCCN3Cc3ccc(C(F)(F)F)cc3N3CCCC3)CC2)n1 [Compound (I) 1,4-dioxane solvate form 1, 1-(1-(2-(pyrrolidin-1-yl)-4-(trifluoromethyl)benzyl)-1,8-diazaspiro[4.5]decane-8-carbonyl)-1H-pyrazole-3-carboxylic acid 1,4-dioxane solvate form 1]
solid form change upon drying ([1]; two hours in a vacuum oven at room temperature): transforms into Compound (I) form 1 upon drying

CC1CCCO1.Cl.O=C(O)c1ccn(C(=O)N2CCC3(CCCN3Cc3ccc(C(F)(F)F)cc3N3CCCC3)CC2)n1 [Compound (I) HCl salt 2-MeTHF solvate]
solid form change upon storage ([1]; 40° C./75% RH for 7 days): transformed into Compound (I) HCl Form 2 | solid form change upon drying ([1]; 100° C. for 10 minutes): transformed into Compound (I) HCl salt form 4

Cl.O=C(O)c1ccn(C(=O)N2CCC3(CCCN3Cc3ccc(C(F)(F)F)cc3N3CCCC3)CC2)n1 [Compound (I) HCl salt MIBK solvate]
solid form change upon drying ([1]; drying the solid (conditions not given)): transforms into Compound (I) HCl salt form 2 upon drying

Cl.O=C(O)c1ccn(C(=O)N2CCC3(CCCN3Cc3ccc(C(F)(F)F)cc3N3CCCC3)CC2)n1 [Compound (I) HCl salt form 2, 1-(1-(2-(pyrrolidin-1-yl)-4-(trifluoromethyl)benzyl)-1,8-diazaspiro[4.5]decane-8-carbonyl)-1H-pyrazole-3-carboxylic acid HCl salt form 2]
water uptake compared with the other HCl salt forms ([2]; DVS): lowest water uptake | water uptake up to 90% RH [2, 7]: 0.5 % wt | hygroscopicity by DVS analysis [2, 7]: slightly hygroscopic | Hygroscopicity in DVS, uptake at 90% RH ([2]; listed as Form 2): (0.5 wt % | Stability at elevated conditions ([3]; listed as Form 2): No change | stability compared with the other HCl salt forms ([3]; accelerated conditions): superior stability over Compound (I) HCl salt form 5 and form 6

Cl.O=C(O)c1ccn(C(=O)N2CCC3(CCCN3Cc3ccc(C(F)(F)F)cc3N3CCCC3)CC2)n1 [Compound (I) HCl salt form 4, 1-(1-(2-(pyrrolidin-1-yl)-4-(trifluoromethyl)benzyl)-1,8-diazaspiro[4.5]decane-8-carbonyl)-1H-pyrazole-3-carboxylic acid HCl salt form 4]
water uptake up to 90% RH [2, 8]: 1.4 % wt | hygroscopicity by DVS analysis [2, 8]: slightly hygroscopic | Hygroscopicity in DVS, uptake at 90% RH ([2]; listed as Form 4): (1.4 wt % | Stability at elevated conditions ([3]; listed as Form 4): No change

Cl.O=C(O)c1ccn(C(=O)N2CCC3(CCCN3Cc3ccc(C(F)(F)F)cc3N3CCCC3)CC2)n1 [Compound (I) HCl salt form 5]
water uptake up to 90% RH [2, 9]: 9.2 % wt | hygroscopicity by DVS analysis [2, 9]: moderately hygroscopic | Hygroscopicity in DVS, uptake at 90% RH ([2]; listed as Form 5): (9.2 wt %

Cl.O=C(O)c1ccn(C(=O)N2CCC3(CCCN3Cc3ccc(C(F)(F)F)cc3N3CCCC3)CC2)n1 [Compound (I) HCl salt form 6]
water uptake up to 90% RH [2, 10]: 3.1 % wt | hygroscopicity by DVS analysis [2, 10]: moderately hygroscopic | Hygroscopicity in DVS, uptake at 90% RH ([2]; listed as Form 6): (3.1 wt %

Cl.O=C(O)c1ccn(C(=O)N2CCC3(CCCN3Cc3ccc(C(F)(F)F)cc3N3CCCC3)CC2)n1 [Compound (I) HCl salt]
XRPD ‘dry’ after 1 day ([4]; 5 ° C., Acetone): HCl salt Form 4 | XRPD ‘dry’ after 7 days ([4]; 5 ° C., Acetone): HCl salt Form 4 | XRPD ‘wet’ (Kapton film) after 7 days ([4]; 5 ° C., Acetone): metastable solvate | XRPD ‘dry’ after 1 day ([4]; 5 ° C., EtOAc): HCl salt Form 2 | XRPD ‘dry’ after 7 days ([4]; 5 ° C., EtOAc): HCl salt Form 2 | XRPD ‘wet’ (Kapton film) after 7 days ([4]; 5 ° C., EtOAc): metastable solvate | XRPD ‘wet’ (Kapton film) after 7 days ([4]; 5 ° C., MIBK): metastable solvate | XRPD ‘dry’ after 1 day ([4]; 5 ° C., MeCN): HCl salt Form 5 | XRPD ‘dry’ after 7 days ([4]; 5 ° C., MeCN): HCl salt Form 5 | XRPD ‘wet’ (Kapton film) after 7 days ([4]; 5 ° C., MeCN): metastable solvate | XRPD ‘wet’ (Kapton film) after 7 days ([4]; 5 ° C., MeOH): metastable solvate | XRPD ‘dry’ after 1 day ([4]; 5 ° C., THF): HCl salt Form 4 | XRPD ‘dry’ after 7 days ([4]; 5 ° C., THF): HCl salt Form 4 | XRPD ‘wet’ (Kapton film) after 7 days ([4]; 5 ° C., THF): metastable solvate | XRPD ‘dry’ after 1 day ([4]; 50 ° C., Acetone): HCl salt Form 2 | XRPD ‘dry’ after 7 days ([4]; 50 ° C., Acetone): HCl salt Form 2 | XRPD ‘wet’ (Kapton film) after 7 days ([4]; 50 ° C., Acetone): metastable solvate | XRPD ‘dry’ after 1 day ([4]; 50 ° C., EtOAc): HCl salt Form 2 | XRPD ‘dry’ after 7 days ([4]; 50 ° C., EtOAc): HCl salt Form 2 | XRPD ‘wet’ (Kapton film) after 7 days ([4]; 50 ° C., EtOAc): metastable solvate | XRPD ‘wet’ (Kapton film) after 7 days ([4]; 50 ° C., MIBK): metastable solvate | XRPD ‘dry’ after 1 day ([4]; 50 ° C., MeCN): HCl salt Form 5 | XRPD ‘dry’ after 7 days ([4]; 50 ° C., MeCN): HCl salt Form 5 | XRPD ‘wet’ (Kapton film) after 7 days ([4]; 50 ° C., MeCN): metastable solvate | XRPD ‘wet’ (Kapton film) after 7 days ([4]; 50 ° C., MeOH): metastable solvate | XRPD ‘dry’ after 1 day ([4]; 50 ° C., THF): HCl salt Form 4 | XRPD ‘dry’ after 7 days ([4]; 50 ° C., THF): HCl salt Form 4 | XRPD ‘wet’ (Kapton film) after 7 days ([4]; 50 ° C., THF): metastable solvate

CC(C)=O.O=C(O)c1ccn(C(=O)N2CCC3(CCCN3Cc3ccc(C(F)(F)F)cc3N3CCCC3)CC2)n1 [Compound (I) acetone solvate, 1-(1-(2-(pyrrolidin-1-yl)-4-(trifluoromethyl)benzyl)-1,8-diazaspiro[4.5]decane-8-carbonyl)-1H-pyrazole-3-carboxylic acid acetone solvate]
solid form change upon heating ([1]; heating for 2 min at 175° C.): transforms into Compound (I) form 1 at elevated temperature

O=C(O)c1ccn(C(=O)N2CCC3(CCCN3Cc3ccc(C(F)(F)F)cc3N3CCCC3)CC2)n1 [Compound (I) form 1, 1-(1-(2-(pyrrolidin-1-yl)-4-(trifluoromethyl)benzyl)-1,8-diazaspiro[4.5]decane-8-carbonyl)-1H-pyrazole-3-carboxylic acid]
water uptake up to 90% RH ([2]; DVS): < 1% | hygroscopicity by DVS analysis ([2]; DVS): largely non-hygroscopic | solid form by XRPD analysis after DVS analysis [2]: still Compound (I) form 1 | relative thermodynamic stability [5]: more thermodynamically stable than Compound (I) form 7 at all temperatures tested | relative thermodynamic stability ([5]; listed as 1-(1-(2-(pyrrolidin-1-yl)-4-(trifluoromethyl)benzyl)-1,8-diazaspiro[4.5]decane-8)): thermodynamically stable

O=C(O)c1ccn(C(=O)N2CCC3(CCCN3Cc3ccc(C(F)(F)F)cc3N3CCCC3)CC2)n1 [Compound (I) form 7, 1-(1-(2-(pyrrolidin-1-yl)-4-(trifluoromethyl)benzyl)-1,8-diazaspiro[4.5]decane-8-carbonyl)-1H-pyrazole-3-carboxylic acid]
water uptake up to 90% RH ([2]; DVS): ~6% | hygroscopicity by DVS analysis ([2]; DVS): moderately hygroscopic | solid form by XRPD analysis after DVS analysis [2]: still Compound (I) form 7 | form conversion in competitive slurry ([5]; methanol or ethanol, 5° C., room temperature, 50° C., one week): transforms into Compound (I) form 1 at all temperatures tested | temperature at which conversion to Compound (I) form 1 begins [6]: 160 °C | temperature at which exclusively Compound (I) form 1 was obtained [6]: 170 °C
